From US20120121591A1 (priority 2009, published 2012)
Like-named read-outs stand apart in the source and are kept apart here.

What was measured:
[1] = tested on: IL-2 secretion from T cells in human whole blood; type: cell-based
[2] = tested on: IFN-g secretion from T cells in human whole blood; type: cell-based
[3] = read-out: WB (IL-2) IC50 (nM, Avg)
[4] = read-out: WB (IFNg) IC50 (nM, Avg)

Compound	IC50 [1, 3] [nM]	IC50 [2, 4] [nM]	IC50 ([2]; read-out: WB (IFNg) IC5- (nM, Avg)) [nM]	IC50 ([1]; read-out: In Vitro IC50, whole blood assay (inhibition of IL-2), average results) [nM]
CC[C@H](C)[C@@H]1NC(=O)[C@@H](NC(=O)[C@H](CO)NC(=O)[C@@H](N)CCCNC(=N)N)CSSC[C@@H](C(=O)O)NC(=O)[C@H]([C@@H](C)O)NC(=O)CNC(=O)[C@@H]2CSSC[C@@H]3NC(=O)[C@H](CCC(N)=O)NC(=O)[C@H](Cc4ccccc4)NC(=O)[C@H](C)NC(=O)[C@H]([C@@H](C)O)NC(=O)[C@H](CSSC[C@H](NC(=O)[C@H](Cc4ccccc4)NC(=O)[C@H](CO)NC(=O)[C@H](CC(C)C)NC(=O)[C@H](CCCNC(=N)N)NC(=O)[C@H](Cc4ccc(O)cc4)NC(=O)[C@H](CCCCN)NC(=O)[C@H](CCSC)NC(=O)[C@H](CO)NC(=O)[C@H](Cc4c[nH]cn4)NC(=O)[C@H](CCCCN)NC3=O)C(=O)N[C@@H](CCCNC(=N)N)C(=O)N[C@@H](Cc3cccc4ccccc34)C(=O)N[C@@H]([C@@H](C)O)C(=O)N2)NC(=O)[C@H](CCCNC(=N)N)NC(=O)[C@H](CO)NC(=O)[C@H](CCCCN)NC(=O)[C@@H]2CCCN2C(=O)[C@H]([C@@H](C)CC)NC(=O)[C@H]([C@@H](C)O)NC(=O)[C@H](CC(=O)O)NC1=O [[1-Nal30]ShK]	0.082	0.148		
CC[C@H](C)[C@@H]1NC(=O)[C@@H](NC(=O)[C@H](CO)NC(=O)[C@@H](N)CCCNC(=N)N)CSSC[C@@H](C(=O)O)NC(=O)[C@H]([C@@H](C)O)NC(=O)CNC(=O)[C@@H]2CSSC[C@@H]3NC(=O)[C@H](CCC(N)=O)NC(=O)[C@H](Cc4ccccc4)NC(=O)[C@H](C)NC(=O)[C@H]([C@@H](C)O)NC(=O)[C@H](CSSC[C@H](NC(=O)[C@H](Cc4ccccc4)NC(=O)[C@H](CO)NC(=O)[C@H](CC(C)C)NC(=O)[C@H](CCCNC(=N)N)NC(=O)[C@H](Cc4ccc(O)cc4)NC(=O)[C@H](CCCCN)NC(=O)[C@H](CCSC)NC(=O)[C@H](CO)NC(=O)[C@H](Cc4c[nH]cn4)NC(=O)[C@H](CCCCN)NC3=O)C(=O)N[C@@H](CCCNC(=N)N)C(=O)N[C@@H](CCCCN)C(=O)N[C@@H]([C@@H](C)O)C(=O)N2)NC(=O)[C@H](C)NC(=O)[C@H](CO)NC(=O)[C@H](CCCCN)NC(=O)[C@@H]2CCCN2C(=O)[C@H]([C@@H](C)CC)NC(=O)[C@H]([C@@H](C)O)NC(=O)[C@H](CC(=O)O)NC1=O [[Ala11]ShK]	1.24	1.9		
CCCC[C@@H]1NC(=O)[C@H](CO)NC(=O)[C@H](Cc2c[nH]cn2)NC(=O)[C@H](CCC(=O)O)NC(=O)[C@@H]2CSSC[C@@H]3NC(=O)[C@H]([C@@H](C)O)NC(=O)[C@H](CCCNC(=N)N)NC(=O)[C@H](CCCNC(=N)N)NC(=O)[C@H](CSSC[C@H](NC(=O)[C@H](CCCNC(=N)N)NC(=O)[C@H](CO)NC(=O)[C@H](CCCCN)NC(=O)[C@@H]4CCCN4C(=O)[C@H]([C@@H](C)CC)NC(=O)[C@H]([C@@H](C)O)NC(=O)[C@H](CC(=O)O)NC(=O)[C@H](CCC(=O)O)NC(=O)[C@@H](NC(=O)[C@H](CO)NC(=O)[C@@H](N)CCCNC(=N)N)CSSC[C@@H](C(N)=O)NC(=O)[C@H]([C@@H](C)O)NC(=O)CNC3=O)C(=O)N[C@@H]([C@@H](C)O)C(=O)N[C@@H](C)C(=O)N[C@@H](Cc3ccccc3)C(=O)N[C@@H](CCCCN)C(=O)N2)NC(=O)[C@H](Cc2ccccc2)NC(=O)[C@H](CO)NC(=O)[C@H](CC(C)C)NC(=O)[C@H](CCCNC(=N)N)NC(=O)[C@H](Cc2ccc(O)cc2)NC(=O)[C@H](CCCCN)NC1=O [[Glu4,18, Lys16,Nle21, Arg30]ShK-amide]	0.97	1.99		
CC[C@H](C)[C@@H]1NC(=O)[C@@H](NC(=O)[C@H](CO)NC(=O)[C@@H](N)CCCNC(=N)N)CSSC[C@@H](C(=O)O)NC(=O)[C@H]([C@@H](C)O)NC(=O)CNC(=O)[C@@H]2CSSC[C@@H]3NC(=O)[C@H](CCC(N)=O)NC(=O)[C@H](Cc4ccccc4)NC(=O)[C@H](CCC(=O)O)NC(=O)[C@H]([C@@H](C)O)NC(=O)[C@H](CSSC[C@H](NC(=O)[C@H](Cc4ccccc4)NC(=O)[C@H](CO)NC(=O)[C@H](CC(C)C)NC(=O)[C@H](CCCNC(=N)N)NC(=O)[C@H](Cc4ccc(O)cc4)NC(=O)[C@H](CCCCN)NC(=O)[C@H](CCSC)NC(=O)[C@H](CO)NC(=O)[C@H](Cc4c[nH]cn4)NC(=O)[C@H](CCCCN)NC3=O)C(=O)N[C@@H](CCCNC(=N)N)C(=O)N[C@@H](CCCCN)C(=O)N[C@@H]([C@@H](C)O)C(=O)N2)NC(=O)[C@H](CCCNC(=N)N)NC(=O)[C@H](CO)NC(=O)[C@H](CCCCN)NC(=O)[C@@H]2CCCN2C(=O)[C@H]([C@@H](C)CC)NC(=O)[C@H]([C@@H](C)O)NC(=O)[C@H](CC(=O)O)NC1=O [[Glu14]ShK]	0.035		0.132	
CC[C@H](C)[C@@H]1NC(=O)[C@@H](NC(=O)[C@H](CO)NC(=O)[C@@H](N)CCCNC(=N)N)CSSC[C@@H](C(=O)O)NC(=O)[C@H](CCCNC(=N)N)NC(=O)CNC(=O)[C@@H]2CSSC[C@@H]3NC(=O)[C@H](CCC(N)=O)NC(=O)[C@H](Cc4ccccc4)NC(=O)[C@H](C)NC(=O)[C@H]([C@@H](C)O)NC(=O)[C@H](CSSC[C@H](NC(=O)[C@H](Cc4ccccc4)NC(=O)[C@H](CO)NC(=O)[C@H](CC(C)C)NC(=O)[C@H](CCCNC(=N)N)NC(=O)[C@H](Cc4ccc(O)cc4)NC(=O)[C@H](CCCCN)NC(=O)[C@H](CCSC)NC(=O)[C@H](CO)NC(=O)[C@H](Cc4c[nH]cn4)NC(=O)[C@H](CCCCN)NC3=O)C(=O)N[C@@H](CCCNC(=N)N)C(=O)N[C@@H](CCCCN)C(=O)N[C@@H]([C@@H](C)O)C(=O)N2)NC(=O)[C@H](CCCNC(=N)N)NC(=O)[C@H](CO)NC(=O)[C@H](CCCCN)NC(=O)[C@@H]2CCCN2C(=O)[C@H]([C@@H](C)CC)NC(=O)[C@H]([C@@H](C)O)NC(=O)[C@H](CC(=O)O)NC1=O [[Arg34]ShK]	0.418	0.486		
CC[C@H](C)[C@@H]1NC(=O)[C@@H](NC(=O)[C@H](CO)NC(=O)[C@@H](N)CCCNC(=N)N)CSSC[C@@H](C(=O)O)NC(=O)[C@H]([C@@H](C)O)NC(=O)CNC(=O)[C@@H]2CSSC[C@@H]3NC(=O)[C@H](C)NC(=O)[C@H](Cc4ccccc4)NC(=O)[C@H](C)NC(=O)[C@H]([C@@H](C)O)NC(=O)[C@H](CSSC[C@H](NC(=O)[C@H](Cc4ccccc4)NC(=O)[C@H](CO)NC(=O)[C@H](CC(C)C)NC(=O)[C@H](CCCNC(=N)N)NC(=O)[C@H](Cc4ccc(O)cc4)NC(=O)[C@H](CCCCN)NC(=O)[C@H](CCSC)NC(=O)[C@H](CO)NC(=O)[C@H](Cc4c[nH]cn4)NC(=O)[C@H](CCCCN)NC3=O)C(=O)N[C@@H](CCCNC(=N)N)C(=O)N[C@@H](CCCCN)C(=O)N[C@@H]([C@@H](C)O)C(=O)N2)NC(=O)[C@H](CCCNC(=N)N)NC(=O)[C@H](CO)NC(=O)[C@H](CCCCN)NC(=O)[C@@H]2CCCN2C(=O)[C@H]([C@@H](C)CC)NC(=O)[C@H]([C@@H](C)O)NC(=O)[C@H](CC(=O)O)NC1=O [[Ala16]ShK]	0.058	0.078		
CC[C@H](C)[C@@H]1NC(=O)[C@@H](NC(=O)[C@H](CO)NC(=O)[C@@H](N)CCCNC(=N)N)CSSC[C@@H](C(=O)O)NC(=O)[C@H]([C@@H](C)O)NC(=O)[C@H](CCC(=O)O)NC(=O)[C@@H]2CSSC[C@@H]3NC(=O)[C@H](CCC(N)=O)NC(=O)[C@H](Cc4ccccc4)NC(=O)[C@H](C)NC(=O)[C@H]([C@@H](C)O)NC(=O)[C@H](CSSC[C@H](NC(=O)[C@H](Cc4ccccc4)NC(=O)[C@H](CO)NC(=O)[C@H](CC(C)C)NC(=O)[C@H](CCCNC(=N)N)NC(=O)[C@H](Cc4ccc(O)cc4)NC(=O)[C@H](CCCCN)NC(=O)[C@H](CCSC)NC(=O)[C@H](CO)NC(=O)[C@H](Cc4c[nH]cn4)NC(=O)[C@H](CCCCN)NC3=O)C(=O)N[C@@H](CCCNC(=N)N)C(=O)N[C@@H](CCCCN)C(=O)N[C@@H]([C@@H](C)O)C(=O)N2)NC(=O)[C@H](CCCNC(=N)N)NC(=O)[C@H](CO)NC(=O)[C@H](CCCCN)NC(=O)[C@@H]2CCCN2C(=O)[C@H]([C@@H](C)CC)NC(=O)[C@H]([C@@H](C)O)NC(=O)[C@H](CC(=O)O)NC1=O [[Glu33]ShK]	0.054			
CC[C@H](C)[C@@H]1NC(=O)[C@@H](NC(=O)[C@H](CO)NC(=O)[C@@H](N)CCCNC(=N)N)CSSC[C@@H](C(=O)O)NC(=O)[C@H]([C@@H](C)O)NC(=O)CNC(=O)[C@@H]2CSSC[C@@H]3NC(=O)[C@H](CCC(N)=O)NC(=O)[C@H](Cc4ccccc4)NC(=O)[C@H](C)NC(=O)[C@H]([C@@H](C)O)NC(=O)[C@H](CSSC[C@H](NC(=O)[C@H](Cc4ccccc4)NC(=O)[C@H](CO)NC(=O)[C@H](CC(C)C)NC(=O)[C@H](CCCCN)NC(=O)[C@H](Cc4ccc(O)cc4)NC(=O)[C@H](CCCCN)NC(=O)[C@H](CCSC)NC(=O)[C@H](CO)NC(=O)[C@H](Cc4c[nH]cn4)NC(=O)[C@H](CCCCN)NC3=O)C(=O)N[C@@H](CCCNC(=N)N)C(=O)N[C@@H](CCCCN)C(=O)N[C@@H]([C@@H](C)O)C(=O)N2)NC(=O)[C@H](CCCNC(=N)N)NC(=O)[C@H](CO)NC(=O)[C@H](CCCCN)NC(=O)[C@@H]2CCCN2C(=O)[C@H]([C@@H](C)CC)NC(=O)[C@H]([C@@H](C)O)NC(=O)[C@H](CC(=O)O)NC1=O [[Lys24]ShK]	0.044			
Fc.L20FcLoopShk (scFc): single-chain Fc with ShK inserted in the second Fc domain, 20-residue linker				2.01
CC[C@H](C)[C@@H]1NC(=O)[C@@H](NC(=O)[C@H](CO)NC(=O)[C@@H](N)CCCNC(=N)N)CSSC[C@@H](C(=O)O)NC(=O)[C@H]([C@@H](C)O)NC(=O)CNC(=O)[C@@H]2CSSC[C@@H]3NC(=O)[C@H](CCC(N)=O)NC(=O)[C@H](Cc4ccccc4)NC(=O)[C@H](C)NC(=O)[C@H]([C@@H](C)O)NC(=O)[C@H](CSSC[C@H](NC(=O)[C@H](Cc4ccccc4)NC(=O)[C@H](CO)NC(=O)[C@H](CC(C)C)NC(=O)[C@H](CCCNC(=N)N)NC(=O)[C@H](Cc4ccc(O)cc4)NC(=O)[C@H](CCCCN)NC(=O)[C@H](CCSC)NC(=O)[C@H](CO)NC(=O)[C@H](Cc4c[nH]cn4)NC(=O)[C@H](CCCCN)NC3=O)C(=O)N[C@@H](CCCNC(=N)N)C(=O)N[C@@H](CCCCN)C(=O)N[C@@H]([C@@H](C)O)C(=O)N2)NC(=O)[C@H](CCCNC(=N)N)NC(=O)[C@H](CO)NC(=O)[C@H](Cc2cccc3ccccc23)NC(=O)[C@@H]2CCCN2C(=O)[C@H]([C@@H](C)CC)NC(=O)[C@H]([C@@H](C)O)NC(=O)[C@H](CC(=O)O)NC1=O [[1-Nal9]ShK]	0.367			
